Laboratory results from ChEMBL document CHEMBL4610122, “Synthesis and Structure-Activity Relationships of DCLK1 Kinase Inhibitors Based on a 5,11-Dihydro-6H-benzo[e]pyrimido[5,4-b][1,4]diazepin-6-one Scaffold” (J Med Chem, 2020).
Active and inactive are the calls of the source. The rule behind the calls is not given here.

How the values were obtained:
[1] = biological target: Leucine-rich repeat serine/threonine-protein kinase 2 (Homo sapiens, UniProt Q5S007); experiment: Inhibition of recombinant human GST-tagged LRRK2 catalytic domain (970 to 2527 residues) expressed in baculovirus expression system using LRRKtide as substrate measured after 1 hr by Alexa fluor-647 ADP tracer-based ADAPTA assay
[2] = biological target: T1, Serine/threonine-protein kinase DCLK1 (Homo sapiens, UniProt O15075); experiment: Inhibition of recombinant human N-terminal His6-tagged DCLK1 (G351 to H689 residues) expressed in Escherichia coli BL21 DE3 using 5-FAM-KKLRRTLSVA-COOH as substrate measured after 2 hrs by mobility shift assay
T1 sequence (O15075 whole entry): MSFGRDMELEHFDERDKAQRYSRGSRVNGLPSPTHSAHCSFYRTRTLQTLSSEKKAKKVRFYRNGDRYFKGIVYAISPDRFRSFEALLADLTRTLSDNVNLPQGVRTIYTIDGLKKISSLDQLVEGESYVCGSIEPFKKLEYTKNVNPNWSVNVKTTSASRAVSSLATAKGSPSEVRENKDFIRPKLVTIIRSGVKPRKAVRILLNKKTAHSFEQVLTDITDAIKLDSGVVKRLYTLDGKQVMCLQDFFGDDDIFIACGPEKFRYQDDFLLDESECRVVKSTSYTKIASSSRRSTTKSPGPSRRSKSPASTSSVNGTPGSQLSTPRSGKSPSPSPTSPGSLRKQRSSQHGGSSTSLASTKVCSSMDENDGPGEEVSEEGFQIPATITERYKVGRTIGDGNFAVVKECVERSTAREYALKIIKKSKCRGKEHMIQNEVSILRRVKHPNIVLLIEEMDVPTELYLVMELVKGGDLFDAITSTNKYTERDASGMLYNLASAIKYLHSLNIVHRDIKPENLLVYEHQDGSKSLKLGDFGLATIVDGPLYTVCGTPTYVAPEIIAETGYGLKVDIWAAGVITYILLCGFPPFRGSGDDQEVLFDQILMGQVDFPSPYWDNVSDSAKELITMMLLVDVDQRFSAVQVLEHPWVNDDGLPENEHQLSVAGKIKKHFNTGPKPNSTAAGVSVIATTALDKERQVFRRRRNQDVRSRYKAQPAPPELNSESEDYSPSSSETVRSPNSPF

[3] = biological target: Bromodomain-containing protein 4 (Homo sapiens, UniProt O60885); experiment: Inhibition of BRD4 bromodomain 1 (unknown origin) by AlphaScreen displacement assay
[4] = biological target: Mitogen-activated protein kinase 7 (Homo sapiens, UniProt Q13164); experiment: Inhibition of ERK5 in human HeLa cells assessed as reduction in EGF-induced ERK5 autophosphorylation pretreated for 1 hr followed by EGF stimulation and measured after 17 mins by […]; assay type: cell-based
[5] = AUC in mouse; assay type: ADME, organism-based; conditions: in vivo
Homo sapiens [6] = species: Homo sapiens; experiment: Cytotoxicity against human Panc286 cell organoids assessed as reduction in cell viability up to 1 uM measured after 4 days; assay type: functional
Homo sapiens [7] = species: Homo sapiens; experiment: Cytotoxicity against human Panc281 cell organoids assessed as reduction in cell viability up to 1 uM measured after 4 days; assay type: functional
[8] = Half life in mouse; assay type: ADME, organism-based; conditions: in vivo
[9] = Cytotoxicity against human Panc286 cell organoids assessed as reduction in cell viability at 1 uM measured after 12 days relative to control; assay type: functional
[10] = Cytotoxicity against human Panc281 cell organoids assessed as reduction in cell viability at 1 uM measured after 12 days relative to control; assay type: functional
[11] = Clearance in mouse; assay type: ADME, organism-based; conditions: in vivo

Sequence of Leucine-rich repeat serine/threonine-protein kinase 2 (Q5S007 whole entry, the tested form may be a part): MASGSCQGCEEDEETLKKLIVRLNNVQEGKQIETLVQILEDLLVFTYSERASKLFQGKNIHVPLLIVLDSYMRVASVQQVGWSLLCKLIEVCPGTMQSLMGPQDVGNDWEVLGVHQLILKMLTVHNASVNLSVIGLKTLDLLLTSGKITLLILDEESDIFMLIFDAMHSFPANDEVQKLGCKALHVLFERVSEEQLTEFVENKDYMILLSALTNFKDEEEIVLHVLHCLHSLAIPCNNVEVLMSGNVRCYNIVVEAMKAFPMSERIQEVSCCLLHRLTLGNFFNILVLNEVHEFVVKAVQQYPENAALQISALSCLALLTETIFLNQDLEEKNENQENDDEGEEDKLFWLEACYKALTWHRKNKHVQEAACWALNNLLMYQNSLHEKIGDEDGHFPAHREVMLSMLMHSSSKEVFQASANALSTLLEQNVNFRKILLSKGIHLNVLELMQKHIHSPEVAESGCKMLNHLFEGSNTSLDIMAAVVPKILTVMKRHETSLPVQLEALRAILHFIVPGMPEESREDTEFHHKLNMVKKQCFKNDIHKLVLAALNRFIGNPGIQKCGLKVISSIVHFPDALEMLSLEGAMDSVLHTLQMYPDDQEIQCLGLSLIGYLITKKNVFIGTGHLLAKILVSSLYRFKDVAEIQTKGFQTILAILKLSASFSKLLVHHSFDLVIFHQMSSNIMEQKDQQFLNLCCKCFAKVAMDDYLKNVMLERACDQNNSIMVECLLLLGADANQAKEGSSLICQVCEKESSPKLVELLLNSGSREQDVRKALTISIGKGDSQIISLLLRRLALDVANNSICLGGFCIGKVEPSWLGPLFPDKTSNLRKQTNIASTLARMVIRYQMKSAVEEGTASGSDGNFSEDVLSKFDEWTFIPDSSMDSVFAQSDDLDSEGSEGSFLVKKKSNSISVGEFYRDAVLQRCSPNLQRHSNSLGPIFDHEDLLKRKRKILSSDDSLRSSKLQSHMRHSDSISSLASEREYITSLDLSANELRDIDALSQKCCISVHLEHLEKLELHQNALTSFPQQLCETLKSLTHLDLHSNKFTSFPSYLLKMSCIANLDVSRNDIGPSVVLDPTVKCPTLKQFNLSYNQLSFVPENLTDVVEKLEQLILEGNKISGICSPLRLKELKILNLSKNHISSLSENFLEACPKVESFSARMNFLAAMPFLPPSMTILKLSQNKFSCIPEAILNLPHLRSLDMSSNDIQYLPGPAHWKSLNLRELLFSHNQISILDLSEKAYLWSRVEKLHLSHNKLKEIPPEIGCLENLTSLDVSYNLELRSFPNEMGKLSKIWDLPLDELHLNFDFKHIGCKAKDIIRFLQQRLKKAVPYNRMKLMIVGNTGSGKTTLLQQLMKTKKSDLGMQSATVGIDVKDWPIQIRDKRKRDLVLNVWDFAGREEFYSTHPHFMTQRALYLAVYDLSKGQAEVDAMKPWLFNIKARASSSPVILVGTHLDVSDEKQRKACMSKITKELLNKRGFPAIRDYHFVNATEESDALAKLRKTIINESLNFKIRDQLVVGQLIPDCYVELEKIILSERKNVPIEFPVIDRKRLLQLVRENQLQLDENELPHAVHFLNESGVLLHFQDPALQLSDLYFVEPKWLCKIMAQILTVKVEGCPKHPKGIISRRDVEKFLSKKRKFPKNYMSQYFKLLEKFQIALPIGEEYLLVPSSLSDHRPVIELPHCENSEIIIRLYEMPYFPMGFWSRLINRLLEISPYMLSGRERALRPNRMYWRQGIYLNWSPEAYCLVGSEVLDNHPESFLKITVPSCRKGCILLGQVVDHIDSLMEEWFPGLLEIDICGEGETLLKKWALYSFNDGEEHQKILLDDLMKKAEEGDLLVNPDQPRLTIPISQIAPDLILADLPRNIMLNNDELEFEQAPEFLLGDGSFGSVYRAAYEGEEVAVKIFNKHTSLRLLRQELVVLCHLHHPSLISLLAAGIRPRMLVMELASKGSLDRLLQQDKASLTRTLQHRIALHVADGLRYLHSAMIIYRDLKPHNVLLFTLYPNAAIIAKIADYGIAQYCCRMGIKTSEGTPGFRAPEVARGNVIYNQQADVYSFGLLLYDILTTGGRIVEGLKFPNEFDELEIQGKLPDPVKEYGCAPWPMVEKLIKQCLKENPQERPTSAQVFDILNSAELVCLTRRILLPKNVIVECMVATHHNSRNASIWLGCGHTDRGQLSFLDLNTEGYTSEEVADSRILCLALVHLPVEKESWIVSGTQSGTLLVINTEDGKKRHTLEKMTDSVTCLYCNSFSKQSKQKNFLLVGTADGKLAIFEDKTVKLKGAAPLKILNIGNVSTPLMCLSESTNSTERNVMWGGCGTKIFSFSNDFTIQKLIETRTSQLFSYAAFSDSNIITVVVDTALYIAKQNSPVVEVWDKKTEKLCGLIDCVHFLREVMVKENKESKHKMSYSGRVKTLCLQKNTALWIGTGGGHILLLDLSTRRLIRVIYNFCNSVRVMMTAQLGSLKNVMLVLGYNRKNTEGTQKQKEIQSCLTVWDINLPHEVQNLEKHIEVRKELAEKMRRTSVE
Sequence of Mitogen-activated protein kinase 7 (Q13164 whole entry): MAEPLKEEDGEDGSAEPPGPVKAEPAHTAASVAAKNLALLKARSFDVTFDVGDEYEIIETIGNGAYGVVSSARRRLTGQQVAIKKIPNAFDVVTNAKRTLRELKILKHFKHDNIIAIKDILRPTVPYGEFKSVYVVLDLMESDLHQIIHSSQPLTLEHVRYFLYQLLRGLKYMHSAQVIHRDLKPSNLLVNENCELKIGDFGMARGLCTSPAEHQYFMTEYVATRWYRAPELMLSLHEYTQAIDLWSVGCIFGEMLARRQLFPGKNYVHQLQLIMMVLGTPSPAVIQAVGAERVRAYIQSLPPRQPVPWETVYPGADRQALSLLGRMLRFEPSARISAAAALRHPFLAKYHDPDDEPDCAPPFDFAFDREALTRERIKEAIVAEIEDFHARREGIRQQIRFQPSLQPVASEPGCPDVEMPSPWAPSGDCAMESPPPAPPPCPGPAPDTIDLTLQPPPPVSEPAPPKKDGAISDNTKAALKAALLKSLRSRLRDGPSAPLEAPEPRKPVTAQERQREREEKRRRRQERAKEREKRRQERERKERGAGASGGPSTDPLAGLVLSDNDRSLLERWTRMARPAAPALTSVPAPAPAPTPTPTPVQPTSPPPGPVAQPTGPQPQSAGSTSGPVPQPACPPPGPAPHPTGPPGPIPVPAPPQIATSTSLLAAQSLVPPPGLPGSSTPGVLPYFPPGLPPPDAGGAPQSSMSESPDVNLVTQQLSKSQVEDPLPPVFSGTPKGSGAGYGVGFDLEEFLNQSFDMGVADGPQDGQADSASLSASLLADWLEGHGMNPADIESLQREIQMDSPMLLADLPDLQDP

| IC50 [1] | IC50 [2] | IC50 [3] | SMILES | also measured |
| --- | --- | --- | --- | --- |
| 0.031 µM | 0.011 µM |  | COc1cc(N2CCOCC2)ccc1Nc1ncc2c(n1)N(C)c1ccccc1C(=O)N2C |  |
|  | > 5 µM |  | COc1cc(N2CCN(C)CC2)ccc1Nc1ncc2c(n1)N(C)c1ccc(C)cc1C(=O)N2CC(F)(F)F |  |
| 0.023 µM | 0.036 µM | 4.6 µM | CCN1C(=O)c2ccccc2N(C)c2nc(Nc3ccc(NS(C)(=O)=O)cc3OC)ncc21 |  |
| 0.378 µM | 0.01 µM | 1.57 µM | COc1cc(C(=O)NC2CCN(C)CC2)ccc1Nc1ncc2c(n1)N(C)c1ccccc1C(=O)N2CC(F)(F)F |  |
| 0.016 µM | 0.104 µM |  | COc1cc(N2CCN(C3CCN(C)CC3)CC2)ccc1Nc1ncc2c(n1)N(C)c1ccccc1C(=O)N2C |  |
| 0.007 µM | 0.187 µM |  | CN1C(=O)c2ccccc2N(C)c2nc(Nc3ccc(S(N)(=O)=O)cc3)ncc21 |  |
| 1.9 µM | 0.411 µM | 1.2 µM | COc1cc(N2CCN(C)CC2)ccc1Nc1ncc2c(n1)N(C)c1ccccc1C(=O)N2C(C)C |  |
| 0.331 µM | 0.126 µM | 2.38 µM | COc1cc(C(=O)NC2CCN(C)CC2)ccc1Nc1ncc2c(n1)N(C)c1ccccc1C(=O)N2C(C)C |  |
| 0.0082 to 0.018 µM | 0.001 to 0.004 µM | 4.17 µM | COc1cc(C(=O)NC2CCN(C)CC2)ccc1Nc1ncc2c(n1)N(C)c1ccccc1C(=O)N2C |  |
| 0.046 µM | 0.716 µM |  | CCOc1cc(N2CCC(O)CC2)ccc1Nc1ncc2c(n1)N(C)c1ccccc1C(=O)N2C |  |
| 0.03 µM | 0.109 µM |  | CN1C(=O)c2ccccc2N(C)c2nc(Nc3ccc(N4CCC(O)CC4)cc3)ncc21 |  |
| 0.16 µM | 0.51 µM |  | CC(C)Oc1cc(N2CCC(O)CC2)ccc1Nc1ncc2c(n1)N(C)c1ccccc1C(=O)N2C |  |
| 0.0059 to 0.006 µM | 0.003 to 0.016 µM | 0.125 µM | COc1cc(NS(C)(=O)=O)ccc1Nc1ncc2c(n1)N(C)c1ccccc1C(=O)N2C | IC50 [4]: 0.276 µM |
| 0.035 µM | 0.037 µM |  | Cc1cc(N2CCC(O)CC2)ccc1Nc1ncc2c(n1)N(C)c1ccccc1C(=O)N2C |  |
|  | 0.214 µM |  | CC(C)Oc1cc(N2CCN(C)CC2)ccc1Nc1ncc2c(n1)N(C)c1ccccc1C(=O)N2CC(F)(F)F |  |
| 0.0141 µM | 0.097 µM |  | COc1cc(N2CCC(O)CC2)ccc1Nc1ncc2c(n1)N(C)c1ccccc1C(=O)N2C |  |
| 0.014 µM | 0.002 µM | 0.52 µM | CCN1C(=O)c2ccccc2N(C)c2nc(Nc3ccc(C(=O)NC4CCN(C)CC4)cc3OC)ncc21 | IC50 [4]: 0.482 µM |
| 8.89 µM | 0.08 µM | > 10 µM | COc1cc(NS(C)(=O)=O)ccc1Nc1ncc2c(n1)N(C)c1ccccc1C(=O)N2CC(F)(F)F |  |
| 0.171 µM | 0.022 µM |  | CCOc1cc(C(=O)N2CCC(N3CCN(C)CC3)CC2)ccc1Nc1ncc2c(n1)N(C1CCCC1)c1ccccc1C(=O)N2C |  |
| 0.005 µM |  |  | COc1cc(C(=O)N2CCN(C3CCN(C)CC3)CC2)ccc1Nc1ncc2c(n1)N(C)c1ccccc1C(=O)N2C |  |
| 0.0061 µM | 0.111 µM |  | CN1C(=O)c2ccccc2N(C)c2nc(Nc3cccc(S(N)(=O)=O)c3)ncc21 |  |
|  | 0.002 µM |  | CN1C(=O)c2ccccc2N(C)c2nc(Nc3ccc(NS(C)(=O)=O)cc3)ncc21 |  |
| 0.023 µM | 0.052 µM |  | COc1cc(N2CCNCC2)ccc1Nc1ncc2c(n1)N(C)c1ccccc1C(=O)N2C |  |
| 0.683 µM | > 1 µM | 7.49 µM | COc1cc(NS(C)(=O)=O)ccc1Nc1ncc2c(n1)N(C)c1ccccc1C(=O)N2C(C)C |  |
| 0.062 µM | 0.003 µM | 0.83 µM | CCN1C(=O)c2ccccc2N(C)c2nc(Nc3ccc(N4CCN(C)CC4)cc3OC)ncc21 | IC50 [4]: 1.2 µM |
| 0.07 µM | > 1 µM | > 10 µM | COc1cc(N2CCN(C)CC2)ccc1Nc1ncc2c(n1)N(C)c1ccccc1C(=O)N2 | IC50 [4]: 1.2 µM |

| SMILES | IC50 [1] | IC50 [2] | IC50 [3] | also measured |
| --- | --- | --- | --- | --- |
| CCN1c2ccccc2C(=O)N(C)c2cnc(Nc3ccc(N4CCN(C)CC4)cc3OC)nc21 | 0.057 µM | 0.154 µM |  |  |
| COc1cc(N2CCN(C)CC2)ccc1Nc1ncc2c(n1)N(C1CCCC1)c1ccccc1C(=O)N2C | 0.421 µM | 0.026 µM |  |  |
| CCC(C)N1c2ccccc2C(=O)N(C)c2cnc(Nc3ccc(N4CCN(C)CC4)cc3OC)nc21 (stereo not given) | 0.743 µM | 0.032 µM |  | IC50 [4]: 0.222 µM |
| COc1cc(N2CCN(C)CC2)ccc1Nc1ncc2c(n1)N(Cc1ccccc1)c1ccccc1C(=O)N2C | 0.141 µM | 0.004 µM |  |  |
| COc1cc(N2CCN(C)CC2)ccc1Nc1ncc2c(n1)N(C1CCC1)c1ccccc1C(=O)N2C | 0.097 µM | 0.014 µM |  | IC50 [4]: 0.079 µM |
| COc1cc(N2CCN(C)CC2)ccc1Nc1ncc2c(n1)N(C)c1ccccc1C(=O)N2C | 0.029 µM | 0.011 to 0.016 µM | 0.888 µM |  |
| COc1cc(N2CCN(C)CC2)ccc1Nc1ncc2c(n1)N(C)c1ccc(C)cc1C(=O)N2C | 0.928 µM | > 2 µM |  |  |
| COc1cc(N2CCN(C)CC2)ccc1Nc1ncc2c(n1)N(C(C)C)c1ccccc1C(=O)N2C | 0.289 µM | 0.071 µM |  |  |
| COc1cc(N2CCN(C)CC2)ccc1Nc1ncc2c(n1)N(C)c1ccccc1C(=O)N2CC(F)(F)F | 7 µM | 0.017 µM | > 10 µM | AUC [5]: 1.27 µg·h/mL; Activity (Homo sapiens [6]): inactive; Activity (Homo sapiens [7]): inactive; IC50 ([4]; hela): 3.35 µM; t1/2 [8]: 2.09 h; Activity [9]: >=50 - 90%; Activity [10]: >=50 - 90%; clearance [11]: 1.58 L/h/kg |
| COc1cc(N2CCN(C)CC2)ccc1Nc1ncc2c(n1)N(C)c1cc(Cl)ccc1C(=O)N2C | 3.74 µM | > 2 µM |  |  |
| COc1cc(N2CCN(C)CC2)ccc1Nc1ncc2c(n1)N(C)c1ccc(Cl)cc1C(=O)N2C | 1.33 µM | > 2 µM |  |  |
| COc1cc(N2CCN(C)CC2)ccc1Nc1nc(C)c2c(n1)N(C)c1ccccc1C(=O)N2C | 0.501 µM | > 2 µM |  | IC50 [4]: > 10 µM |
